We go through 56 compounds from ChEMBL document CHEMBL4304757, “Synthetic heterocyclic candidates as promising α-glucosidase inhibitors: An overview” (Eur J Med Chem, 2019).

The IC50 is the concentration needed to halve the response being measured. The low end stands for inhibition by little substance, the high end for a need for much substance.

The test can be described thus: Inhibition of yeast alpha-glucosidase using p-nitrophenyl-alpha-d-glucopyranoside as substrate preincubated for 10 mins followed by substrate addition measured after 30 mins. Also noted: species or system Saccharomyces cerevisiae.
`Cc1ccc(-n2c(-c3cn(-c4ccccc4)nc3-c3cc4cc(Br)ccc4oc3=O)nc(-c3ccccc3)c2-c2ccccc2)cc1`: the IC50 lay in the range of 2.5 to 46 µM.
The same measure for `COc1cccc(NC(=S)NNC(=O)c2ccc(-c3nc4cc(C)c(C)cc4[nH]3)cc2)c1`: 35 to 297 µM; for `Cc1cc2nc(-c3ccc(C(=O)NNC(=S)Nc4ccc(Cl)cc4)cc3)[nH]c2cc1C`: 35 to 297 µM.
The same measure for `Cc1cccc(NC(=S)NNC(=O)c2ccc(-c3nc4cc(C)c(C)cc4[nH]3)cc2)c1`: 35 to 297 µM.
The same measure for `Cc1cc2nc(-c3ccc(C(=O)NNC(=S)Nc4ccc(C(F)(F)F)cc4)cc3)[nH]c2cc1C`: 35 to 297 µM; for `Cc1cccc(/C=N/NC(=O)c2ccc(-c3nc4cc(C)c(C)cc4[nH]3)cc2)c1`: 8.4 to 179 µM; for `Cc1cc2nc(-c3ccc(C(=O)NNC(=S)Nc4cccc(Br)c4)cc3)[nH]c2cc1C`: 35 to 297 µM.
As to `Cc1cc2nc(-c3ccc(C(=O)NNC(=S)Nc4ccc([N+](=O)[O-])cc4)cc3)[nH]c2cc1C`, inhibition was half-maximal at 35 µM (IC50).
Then `Cc1cc(C)cc(-n2c(-c3cn(-c4ccccc4)nc3-c3cc4ccccc4oc3=O)nc(-c3ccccc3)c2-c2ccccc2)c1`, with 2.5 to 46 µM; and `COc1cccc(/C=N/NC(=O)c2ccc(-c3nc4cc(C)c(C)cc4[nH]3)cc2)c1`, with 8.4 to 179 µM; and `O=c1oc2ccccc2cc1-c1nn(-c2ccccc2)cc1-c1nc(-c2ccccc2)c(-c2ccccc2)n1-c1ccc(Cl)cc1`, with 2.5 to 46 µM.
The same measure for `Cc1nn(-c2ccc(Nc3cccc(Cl)c3)nn2)c(C)c1[N+](=O)[O-]`: 19 µM.
The same measure for `Cc1ccc(/C=N/NC(=O)c2ccc(-c3nc4cc(C)c(C)cc4[nH]3)cc2)cc1`: 8.4 to 179 µM.
As for `Cc1cc2nc(-c3ccc(C(=O)N/N=C/c4cccc(O)c4O)cc3)[nH]c2cc1C`, the IC50 lay in the range of 8.4 to 9.9 µM.
`Cc1cc2nc(-c3ccc(C(=O)N/N=C/c4ccccc4O)cc3)[nH]c2cc1C` had an IC50 of 8.4 to 179 µM.
`Cc1cc2nc(-c3ccc(C(=O)NNC(=S)Nc4ccc(Cl)c(Cl)c4)cc3)[nH]c2cc1C` gave a half-maximal inhibitory concentration (IC50) of 35 to 297 µM.
The same measure for `Cc1cc2nc(-c3ccc(C(=O)NNC(=S)Nc4ccc(Br)cc4)cc3)[nH]c2cc1C`: 35 to 297 µM.
Then `Cc1cc2nc(-c3ccc(C(=O)N/N=C/c4cccc(F)c4)cc3)[nH]c2cc1C`, with 8.4 to 179 µM.
The same measure for `Cc1cc2nc(-c3ccc(C(=O)N/N=C/c4ccccc4C)cc3)[nH]c2cc1C`: 8.4 to 179 µM; for `O=[N+]([O-])c1ccc(-n2cc(-c3nc(-c4ccccc4)c(-c4ccccc4)[nH]3)c(-c3ccccc3)n2)cc1`: 2.7 to 23 µM.
Regarding `Cc1cc2nc(-c3ccc(C(=O)N/N=C/c4cccnc4)cc3)[nH]c2cc1C`, the half-maximal inhibitory concentration (IC50) lay in the range of 8.4 to 179 µM.
Then `CCCn1c(-c2cn(-c3ccccc3)nc2-c2cc3ccccc3oc2=O)nc(-c2ccccc2)c1-c1ccccc1`, with 2.5 to 46 µM; and `Cc1cc2nc(-c3ccc(C(=O)NNC(=S)Nc4ccccc4F)cc3)[nH]c2cc1C`, with 35 to 297 µM.
Then `COc1ccc(/C=N/NC(=O)c2ccc(-c3nc4cc(C)c(C)cc4[nH]3)cc2)c(O)c1`, with 8.4 to 9.9 µM.
The same measure for `Cc1cc2nc(-c3ccc(C(=O)NNC(=S)Nc4cccc([N+](=O)[O-])c4)cc3)[nH]c2cc1C`: 35 to 297 µM; for `c1ccc(-c2nn(-c3ccccc3)cc2-c2nc(-c3ccccc3)c(-c3ccccc3)[nH]2)cc1`: 2.7 to 23 µM.
`O=c1oc2ccc(Br)cc2cc1-c1nn(-c2ccccc2)cc1-c1nc(-c2ccccc2)c(-c2ccccc2)[nH]1`: the concentration for half-maximal inhibition (IC50) is 2.7 to 23 µM.
The same measure for `COc1ccc(/C=N/NC(=O)c2ccc(-c3nc4cc(C)c(C)cc4[nH]3)cc2)cc1OC`: 8.4 to 179 µM.
The same measure for `Cc1cc2nc(-c3ccc(C(=O)N/N=C/c4cc(O)ccc4O)cc3)[nH]c2cc1C`: 8.4 to 9.9 µM; for `COc1ccc(/C=N/NC(=O)c2ccc(-c3nc4cc(C)c(C)cc4[nH]3)cc2)cc1O`: 8.4 to 179 µM.
The same measure for `Cc1cc2nc(-c3ccc(C(=O)N/N=C/c4ccccn4)cc3)[nH]c2cc1C`: 8.4 to 179 µM; for `O=c1oc2ccccc2cc1-c1nn(-c2ccccc2)cc1-c1nc(-c2ccccc2)c(-c2ccccc2)[nH]1`: 2.7 µM.
For `O=c1oc2ccccc2cc1-c1nn(-c2ccccc2)cc1-c1nc(-c2ccccc2)c(-c2ccccc2)n1-c1ccc(Br)cc1`, the concentration for half-maximal inhibition (IC50) lay within 2.5 to 46 µM.
Then `O=c1oc2ccc(Br)cc2cc1-c1nn(-c2ccccc2)cc1-c1nc(-c2ccccc2)c(-c2ccccc2)n1-c1ccc(Br)cc1`, with 2.5 to 46 µM; and `Cc1nn(-c2ccc([N+](=O)[O-])cc2)c(C)c1-c1nc(-c2ccccc2)c(-c2ccccc2)[nH]1`, with 2.7 to 23 µM; and `COc1ccc(-c2nn(-c3ccccc3)cc2-c2nc(-c3ccccc3)c(-c3ccccc3)[nH]2)cc1`, with 2.7 to 23 µM.
Then `COc1ccc(O)c(/C=N/NC(=O)c2ccc(-c3nc4cc(C)c(C)cc4[nH]3)cc2)c1`, with 8.4 to 9.9 µM.
Then `Cc1cc2nc(-c3ccc(C(=O)NNC(=S)Nc4cccc(F)c4)cc3)[nH]c2cc1C`, with 35 to 297 µM; and `O=c1oc2ccc(Br)cc2cc1-c1nn(-c2ccccc2)cc1-c1nc(-c2ccccc2)c(-c2ccccc2)n1-c1ccc(Cl)cc1`, with 2.5 µM.
The compound `Cc1cc2nc(-c3ccc(C(=O)N/N=C/c4ccc(O)c(Br)c4)cc3)[nH]c2cc1C` displayed a half-inhibitory concentration (IC50) of 8.4 to 179 µM.
The same measure for `Cc1cc2nc(-c3ccc(C(=O)N/N=C/c4ccc([N+](=O)[O-])cc4)cc3)[nH]c2cc1C`: 8.4 to 179 µM; for `Cc1cc2nc(-c3ccc(C(=O)N/N=C/c4ccc(O)cc4)cc3)[nH]c2cc1C`: 8.4 to 179 µM; for `COc1ccc(-n2c(-c3cn(-c4ccccc4)nc3-c3cc4ccccc4oc3=O)nc(-c3ccccc3)c2-c2ccccc2)cc1`: 2.5 to 46 µM.
Then `Cc1cc(C)cc(-n2c(-c3cn(-c4ccccc4)nc3-c3cc4cc(Br)ccc4oc3=O)nc(-c3ccccc3)c2-c2ccccc2)c1`, with 2.5 to 46 µM; and `c1ccc(-c2ccc(-c3nn(-c4ccccc4)cc3-c3nc(-c4ccccc4)c(-c4ccccc4)[nH]3)cc2)cc1`, with 2.7 to 23 µM; and `Cc1cc2nc(-c3ccc(C(=O)N/N=C/c4cccc(O)c4)cc3)[nH]c2cc1C`, with 8.4 to 179 µM.
Then `Cc1cc2nc(-c3ccc(C(=O)NNC(=S)Nc4ccccc4Br)cc3)[nH]c2cc1C`, with 35 to 297 µM; and `Cc1cc2nc(-c3ccc(C(=O)NNC(=S)Nc4ccc(F)cc4)cc3)[nH]c2cc1C`, with 35 to 297 µM.
In the case of `Cc1cc2nc(-c3ccc(C(=O)N/N=C/c4cc(O)c(O)c(O)c4)cc3)[nH]c2cc1C`, it took 8.4 µM to reach half-maximal inhibition (IC50).
The same measure for `Brc1ccc(-c2nn(-c3ccccc3)cc2-c2nc(-c3ccccc3)c(-c3ccccc3)[nH]2)cc1`: 2.7 to 23 µM.
Consider `Cc1cc2nc(-c3ccc(C(=O)NNC(=S)Nc4ccccc4Cl)cc3)[nH]c2cc1C`, for which the IC50 lay within 35 to 297 µM.
Then `Cc1cc2nc(-c3ccc(C(=O)N/N=C/c4cccc(Cl)c4)cc3)[nH]c2cc1C`, with 8.4 to 179 µM.
Then `O=[N+]([O-])c1cccc(-c2nn(-c3ccccc3)cc2-c2nc(-c3ccccc3)c(-c3ccccc3)[nH]2)c1`, with 2.7 to 23 µM.
The same measure for `Cc1ccc(NC(=S)NNC(=O)c2ccc(-c3nc4cc(C)c(C)cc4[nH]3)cc2)cc1`: 35 to 297 µM; for `COc1ccc(-n2c(-c3cn(-c4ccccc4)nc3-c3cc4cc(Br)ccc4oc3=O)nc(-c3ccccc3)c2-c2ccccc2)cc1`: 2.5 to 46 µM; for `Clc1ccc(-c2nn(-c3ccccc3)cc2-c2nc(-c3ccccc3)c(-c3ccccc3)[nH]2)cc1`: 2.7 to 23 µM.
